Test results taken from patent US9321728B2, “Beta-alanine derivatives, pharmaceutically acceptable salts thereof, and pharmaceutical composition comprising same as active ingredient” (KOREA RESEARCH INSTITUTE OF CHEMICAL TECHNOLOGY, priority 2012, dated 2016).

Target: human DGAT1 (Homo sapiens (Human), UniProt O75907)
Assay: Human DGAT1 enzyme inhibition test (phospholipid FlashPlate, [14C]decanoyl-CoA)
Assay type: biochemical
Conditions: for IC50: lysate of Hep3B cells over-expressing human DGAT1 (5 μg/well), didecanoyl glycerol and [14C]decanoyl-CoA substrates; for in vitro inhibition activity with respect to DGAT1: verbal summary of Table 1
Method: The cells were treated with 200 μg/ml G-418(Sigma) once every three days for 4 weeks to over-express the human DGAT1, thereby obtaining a stabilized cell line. The over-expressed cells were put into a homogenization buffer [250 mM sucrose, 10 mM Tris-HCl (pH 7.4), 1 mM EDTA] and lysed by a homogenization apparatus. Then, centrifugation was performed with 600×g for 15 minutes to remove cell residue, and the obtained cells were used for an enzyme inhibition test. Human DGAT-1 and mouse DGAT activity was determined as follows: Assay buffer [20 mM HEPES (pH 7.4), 100 mM MgCl2, 0.04% BSA] containing 500 μM of enzyme substrate (didecanoyl glycerol) and 7.5 μM radiolabeled acyl-CoA substrate ([^14C]decanoyl-CoA) was added to each well of a phospholipid FlashPlate (PerkinElmer Life Sciences). A small aliquot of lysate (5 μg/well) or mouse liver microsome (0.1 mg/well) was added to start the reaction, which was allowed to proceed in a 20° C. bath for 1 hour. and maintained overnight at room temperature. Next day, measurement was performed by Wallac 1450 Microbeta Trilux Liquid Scintillation Counter and Luminometer (PerkinElmer Life Science). […] A calculation method of inhibition degree (%) is as follows.

human DGAT1, sequence (O75907 whole entry): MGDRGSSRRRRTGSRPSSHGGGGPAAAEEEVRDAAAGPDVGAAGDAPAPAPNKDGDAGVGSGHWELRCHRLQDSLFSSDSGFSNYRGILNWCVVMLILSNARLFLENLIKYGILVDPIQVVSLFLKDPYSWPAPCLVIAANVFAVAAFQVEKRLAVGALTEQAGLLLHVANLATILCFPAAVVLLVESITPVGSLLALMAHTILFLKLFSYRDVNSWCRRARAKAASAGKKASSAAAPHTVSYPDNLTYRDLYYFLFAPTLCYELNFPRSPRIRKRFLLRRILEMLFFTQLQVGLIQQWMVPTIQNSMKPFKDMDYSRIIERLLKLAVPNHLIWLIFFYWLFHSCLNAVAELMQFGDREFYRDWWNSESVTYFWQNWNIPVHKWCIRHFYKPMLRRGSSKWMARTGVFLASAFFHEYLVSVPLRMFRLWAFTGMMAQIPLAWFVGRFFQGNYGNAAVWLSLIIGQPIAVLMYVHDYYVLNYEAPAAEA

SMILES	IC50	in vitro inhibition activity with respect to DGAT1
Cc1ccccc1-c1nc(C(=O)NCCC(=O)Nc2ccc([C@H]3CC[C@H](CC(=O)O)CC3)cc2)c(C(F)(F)F)o1 [Compound 21, trans-[4-(4-{3-[(2-o-tolyl-5-trifluoromethyloxazole-4-carbonyl)amino]propionylamino}phenyl)cyclohexyl]acetic acid]	< 100 nM	
Cc1ccc(-c2nc(C(=O)NCCC(=O)Nc3ccc([C@H]4CC[C@H](CC(=O)O)CC4)cc3)c(C(F)(F)F)o2)cc1 [Compound 19, trans-[4-(4-{3-[(2-p-tolyl-5-trifluoromethyloxazole-4-carbonyl)amino]propionylamino}phenyl)cyclohexyl]acetic acid]	< 100 nM	
O=C(O)C[C@H]1CC[C@H](c2ccc(NC(=O)CCNC(=O)c3cn(-c4ccc(Cl)cc4)nc3C(F)(F)F)cc2)CC1 [Compound 49, trans-{4-[4-(3-{[1-(4-chlorophenyl)-3-trifluoromethyl-1H-pyrazole-4-carbonyl]amino}propionylamino)phenyl]cyclohexyl}acetic acid]	< 100 nM	
O=C(O)C[C@H]1CC[C@H](c2ccc(NC(=O)CCNC(=O)c3cn(-c4ccccc4Cl)nc3C(F)(F)F)cc2)CC1 [Compound 51, trans-{4-[4-(3-{[1-(2-Chlorophenyl)-3-trifluoromethyl-1H-pyrazole-4-carbonyl]amino}propionylamino)phenyl]cyclohexyl}acetic acid]	< 100 nM	
O=C(O)C[C@H]1CC[C@H](c2ccc(NC(=O)CCNC(=O)c3nc(-c4c(F)cccc4Cl)oc3C(F)(F)F)cc2)CC1 [Compound 73, trans-{4-[4-(3-{[2-(2-chloro-6-fluorophenyl)-5-trifluoromethyloxazole-4-carbonyl]amino}propionylamino)phenyl]cyclohexyl}acetic acid]	< 100 nM	
O=C(O)C[C@H]1CC[C@H](c2ccc(NC(=O)CCNC(=O)c3nc(-c4c(Cl)cc(F)cc4Cl)oc3C(F)(F)F)cc2)CC1 [Compound 105]	< 50 nM	good to excellent
O=C(O)C[C@H]1CC[C@H](c2ccc(NC(=O)CCNC(=O)c3sc(-c4ccccc4)nc3C(F)(F)F)cc2)CC1 [Compound 37, trans-[4-(4-{3-[(2-phenyl-4-trifluoromethylthiazole-5-carbonyl)amino]propionylamino}phenyl)cyclohexyl]acetic acid]	< 100 nM	
CCc1ccc(-c2ccc(C(=O)NCCC(=O)Nc3ccc([C@H]4CC[C@H](CC(=O)O)CC4)cc3)cc2)cc1 [Compound 93, trans-[4-(4-{3-[(4′-ethylbiphenyl-4-carbonyl)amino]propionylamino}phenyl)cyclohexyl]acetic acid]	< 50 nM	good to excellent
Cc1oc(-c2ccccc2)nc1C(=O)NCCC(=O)Nc1ccc([C@H]2CC[C@H](CC(=O)O)CC2)cc1 [Compound 31, trans-[4-(4-{3-[(5-methyl-2-phenyloxazole-4-carbonyl)amino]propionylamino}phenyl)cyclohexyl]acetic acid]	< 100 nM	
O=C(O)C[C@H]1CC[C@H](c2ccc(NC(=O)CCNC(=O)c3nc(-c4ccccc4Cl)oc3C(F)(F)F)cc2)CC1 [Compound 79, sodium; trans-{4-[4-(3-{[2-(2-chlorophenyl)-5-trifluoromethyloxazole-4-carbonyl]amino}propionylamino)phenyl]cyclohexyl}acetate]	< 50 nM	
O=C(O)C[C@H]1CC[C@H](c2ccc(NC(=O)CCNC(=O)c3nc(-c4ccccc4Cl)oc3Cl)cc2)CC1 [Compound 95, trans-{4-[4-(3-{[5-chloro-2-(2-chlorophenyl)oxazole-4-carbonyl]amino}propionylamino)phenyl]cyclohexyl}acetic acid]	< 50 nM	good to excellent
CCOc1ccc(C(=O)NCCC(=O)Nc2ccc([C@H]3CC[C@H](CC(=O)O)CC3)cc2)cc1 [Compound 4, trans-(4-{4-[3-(4-ethoxybenzoylamino)propionylamino]phenyl}cyclohexyl)acetic acid]	< 50 nM	good to excellent
O=C(O)C[C@H]1CC[C@H](c2ccc(NC(=O)CCNC(=O)c3ccc(-c4ccccc4Cl)cc3)cc2)CC1 [Compound 86, trans-[4-(4-{3-[(2′-chlorobiphenyl-4-carbonyl)amino]propionylamino}phenyl)cyclohexyl]acetic acid]	< 100 nM	
O=C(O)C[C@H]1CC[C@H](c2ccc(NC(=O)CCNC(=O)c3nc(-c4ccccc4Br)oc3C(F)(F)F)cc2)CC1 [Compound 65, trans-{4-[4-(3-{[2-(2-Bromophenyl)-5-trifluoromethyloxazole-4-carbonyl]amino}propionylamino)phenyl]cyclohexyl}acetic acid]	< 50 nM	good to excellent
O=C(O)C[C@H]1CC[C@H](c2ccc(NC(=O)CCNC(=O)c3nc(-c4ccccc4)oc3C(F)(F)F)cc2)CC1 [Compound 22, sodium; trans-[4-(4-{3-[(2-phenyl-5-trifluoromethyloxazole-4-carbonyl)amino]propionylamino}phenyl)cyclohexyl]acetate]	< 500 nM	
NC(=O)C[C@H]1CC[C@H](c2ccc(NC(=O)CCNC(=O)c3nc(-c4ccccc4)oc3C(F)(F)F)cc2)CC1 [Compound 41, trans-2-phenyl-5-trifluoromethyloxazole-4-carboxylic acid{2-[4-(4-carbamoylmethylcyclohexyl)phenylcarbamoyl]ethyl}amide]	< 50 nM	good to excellent
O=C(O)C[C@H]1CC[C@H](c2ccc(NC(=O)CCNC(=O)c3nc(-c4ccc(Cl)cc4Cl)oc3C(F)(F)F)cc2)CC1 [Compound 64, trans-{4-[4-(3-{[2-(2,4-dichlorophenyl)-5-trifluoromethyloxazole-4-carbonyl]amino}propionylamino)phenyl]cyclohexyl}acetic acid]	< 50 nM	good to excellent
O=C(O)C[C@H]1CC[C@H](c2ccc(NC(=O)CCNC(=O)c3nc(-c4ccc(F)cc4)oc3C(F)(F)F)cc2)CC1 [Compound 56, trans-{4-[4-(3-{[2-(4-fluorophenyl)-5-trifluoromethyloxazole-4-carbonyl]amino}propionylamino)phenyl]cyclohexyl}acetic acid]	< 500 nM	
O=C(O)C[C@H]1CC[C@H](c2ccc(NC(=O)CCNC(=O)c3cn(-c4ccccc4)nc3C(F)(F)F)cc2)CC1 [Compound 7, trans-[4-(4-{3-[(1-phenyl-3-trifluoromethyl-1H-pyrazole-4-carbonyl)amino]propionylamino}phenyl)cyclohexyl]acetic acid]	< 100 nM	
O=C(O)C[C@H]1CC[C@H](c2ccc(NC(=O)CCNC(=O)c3nc(-c4ccc(Br)cc4)oc3C(F)(F)F)cc2)CC1 [Compound 27, trans-{4-[4-(3-{[2-(4-bromophenyl)-5-trifluoromethyloxazole-4-carbonyl]amino}propionylamino)phenyl]cyclohexyl}acetic acid]	< 100 nM	
O=C(O)C[C@H]1CC[C@H](c2ccc(NC(=O)CCNC(=O)c3nc(-c4ccccc4)oc3Cl)cc2)CC1 [Compound 87, trans-[4-(4-{3-[(5-chloro-2-phenyloxazole-4-carbonyl)amino]propionylamino}phenyl)cyclohexyl]acetic acid]	< 100 nM	
O=C(O)C[C@H]1CC[C@H](c2ccc(NC(=O)CCNC(=O)c3nc(-c4ccccc4F)oc3C(F)(F)F)cc2)CC1 [Compound 60, trans-{4-[4-(3-{[2-(2-Fluorophenyl)-5-trifluoromethyloxazole-4-carbonyl]amino}propionylamino)phenyl]cyclohexyl}acetic acid]	< 50 nM	good to excellent
Cc1cccc(C)c1-c1ccc(C(=O)NCCC(=O)Nc2ccc([C@H]3CC[C@H](CC(=O)O)CC3)cc2)cc1 [Compound 75, trans-[4-(4-(3-(2′,6′-dimethylbiphenyl-4-carbonylamino)propionylamino)phenyl)cyclohexyl]acetic acid]	< 100 nM	
O=C(O)C[C@H]1CC[C@H](c2ccc(NC(=O)CCNC(=O)c3nc(-c4ccccc4)oc3C(F)(F)F)cc2)CC1 [Compound 6, trans-[4-(4-{3-[(2-Phenyl-5-trifluoromethyloxazole-4-carbonyl)amino]propionylamino}phenyl)cyclohexyl]acetic acid]	< 50 nM	good to excellent
O=C(O)C[C@H]1CC[C@H](c2ccc(NC(=O)CCNC(=O)c3nc(-c4ccccc4Cl)oc3C(F)(F)F)cc2)CC1 [Compound 11, trans-{4-[4-(3-{[2-(2-chlorophenyl)-5-trifluoromethyloxazole-4-carbonyl]amino}propionylamino)phenyl]cyclohexyl}acetic acid]	< 50 nM	good to excellent
O=C(O)C[C@H]1CC[C@H](c2ccc(NC(=O)CCNC(=O)c3ccc(OCC4CC4)cc3)cc2)CC1 [Compound 58, trans-(4-{4-[3-(4-cyclopropylmethoxybenzoylamino)propionylamino]phenyl}cyclohexyl)acetic acid]	< 500 nM	
Cc1ccc(-n2cc(C(=O)NCCC(=O)Nc3ccc([C@H]4CC[C@H](CC(=O)O)CC4)cc3)c(C(F)(F)F)n2)cc1 [Compound 47, trans-[4-(4-{3-[(1-p-tolyl-3-trifluoromethyl-1H-pyrazole-4-carbonyl)amino]propionylamino}phenyl)cyclohexyl]acetic acid]	< 100 nM	
